Experimental data: patent US8119657B2, “Enantiomeric compositions of 2-amino-1-(2-isopropylpyrazolo[1,5-α]pyridin-3-yl)propan-1-one and related methods” (MediciNova, Inc., priority 2009, dated 2012)
“Also recorded” adds a separate entry of the source. Marks after values point to notes of the source that are not given here.

Columns and labels:
[1] = Chiral and chemical stability in solution and on storage; assay type: physicochemical
Text: Without ascribing to any particular theory, the present inventors believe that the facile separation of enantiomers using the N-protected racemate of AV1013 is probably due to the greater stability of the racemate as well as the separate enantiomers in protected form. […] Unstability also stems from the ability of the free base to self condense. Because self-condensation is promoted in concentrated solutions, it is desirable to avoid highly concentrated solutions of the free base form of optically active AV1013. Likewise, the free base form of racemic AV1013 or its hydrochloride salt are also unstable, precluding their use as precursors to obtaining (S)-AV1013 as a free base or its hydrochloride salt in high yield and/or high purity.
Thus, it is often desirable to re-purify the de-protected product using purification techniques known in the art. For example, any one or more of the methods described above for separating chiral molecules, such as, chromatography (e.g., HPLC, GC, and SFC), crystallization, fractional crystallization, and the like may be used for re-purification. An exemplary method is recrystallization. Purification by recrystallization allows separation of the desired (S)-enantiomer in high purity, such that the overall reaction sequence including isolation of the desired (S)-enantiomer requires only a single chromatographic step (i.e., the chiral separation). Recrystallization can be carried out in any of a number of single or mixed solvent systems including alcohols, ethers, esters, nitriles, halogenated hydrocarbons, amides and aqueous mixtures thereof. Suitable solvents include methanol, ethanol, propanol, iso-propanol, acetone, tetrahyrofuran, methyl ethyl ketone, methyl isobutyl ketone, ethyl acetate, amyl acetate, acetonitrile, diethyl ether, methyl tert-butyl ether, dichloromethane, dichloroethane, chloroform, dimethylformamide, and combinations thereof. Illustrative mixed solvent systems used to recrystallize (S)-AV1013 are iso-propanol/methyl tert-butyl ether and ethanol/methyl tert-butyl ether.
The five-step route provided a 15% overall yield of (S)-AV1013.HCl. The chiral separation, by SFC chromatography, is the only chromatographic step required. Hydrolysis of the N-protected (S)-AV1013, followed by recrystallization from iso-propanol/methyl tert-butyl ether provided (S)-AV1013.HCl in greater than 99% chemical purity and greater than 97% S-enantiomer (greater than 94% enantiomeric excess (ee)) by chiral HPLC, as determined from the equation ee=[|R−S^51÷(R+S)]×100 ee=[|R−S|÷(R+S)]×100. […] Even under optimal storage and handling conditions to minimize exposure to moisture, a small degree of racemization (i.e., approximately 2%) was observed. Recrystallization was effective to improve enantiomeric purity to arrive at a product having an illustrative chiral purity as described above. […] The recrystallized (S)-AV 1013.HCl contained approximately 25 mole percent alcohol (less than about 10% by weight) even when dried at 50° C. Thus, it appears that the resultant product is formed as a solvate under the recrystallization and drying conditions employed.

Rolipram binding site = assay: Inhibition of binding at the Rolipram binding site; settings: 10 uM
[2] = system: rat chronic constriction injury model of neuropathic pain; assay: Rat chronic constriction injury model of neuropathic pain (von Frey mechanical allodynia); assay type: in vivo; settings: for in vivo activity in a rat model of neuropathic pain: dose not stated
Text: The (S)- and the (R)-enantiomer of AV1013 were each evaluated in a rat chronic constriction injury model of neuropathic pain (see, Ledeboer et. al., Neuron Glia Biology, (2006), p 279-291), to determine whether differences in their activity could be observed.
To induce allodynia, male Sprague-Dawley rats underwent chronic constriction injury (CCI) to the sciatic nerve as described by Bennett and Xie, Pain 1988; 33(1):87-107. The plantar surface of the hind paws was stimulated with von Frey filaments (Stoelting) to induce a withdrawal response by blinded personnel. The bending force of fiber required to induce a 50% withdrawal response was calculated following CCI surgery (pre-dosing baseline).
Allodynic rats (N=5-6), received an oral administration of (S)-AV1013 (25 mg/kg), AV1013-R (100 mg/kg) or vehicle. Two hours post-dosing, 50% paw withdrawal threshold was determined by blinded testers using von Frey filaments. The 50% withdrawal threshold prior to CCI surgery, pre-dosing (10 days post-surgery), and 2 hours post-dosing are plotted in FIG. 3.

[3] = Rat pharmacokinetics of the enantiomers after oral dosing of racemic AV1013; assay type: in vivo
Method: Three male Sprague-Dawley rats were dosed orally via gavage with 25 mg/kg racemic AV1013 dissolved in water. Serial blood samples were collected from the tail vein at 5, 15, and 30 min, 1, 3, and 6 hours post dosing. Samples were processed for plasma via centrifugation and plasma samples were stored frozen prior to analysis.
(§1) A sensitive and specific chiral HPLC/MS/MS bioanalytical method for the detection of (S)-AV1013 and (R)-AV1013 enantiomers in rat and dog plasma was utilized. AV1013 enantiomers and the internal standard (AV1040, an analog of AV1013) were isolated from plasma by protein precipitation induced by acetonitrile. After centrifugation to sediment the proteins, the supernatant fractions were analyzed by high performance liquid chromatography (LC) in conjunction with a triple quadrupole mass spectrometer that used electrospray ionization in tandem with positive ionization (MS/MS) according to the conditions below. The LLOQ (lower level of quantitation) was typically <3 ng/mL.
(§2) Analysis of pharmacokinetic parameters was performed for each enantiomer via LC/MS bioanalytics and WinNonlin™ analysis (version 4.0.1; Pharsight Corp., Mountain View, Calif.), commercial software designed for the analysis of PK data. The PK modeling was based on a non-compartmental model with gradual input into the central compartment. Computation of the area under the curve (AUC) was based on the sum of trapezoidal areas for the plotted plasma concentration-time data. AUC and associated parameters were estimated by log-linear regression analysis of the terminal phase.

[4] = Dog pharmacokinetics of the enantiomers after oral dosing of racemic AV1013; assay type: in vivo
Method: Three male beagle dogs were dosed orally with 10 mg/kg racemic AV1013 via gavage. AV1013 was dissolved in water at 5 mg/ml and dosed via gavage at a volume of 2 ml/kg. Blood samples were collected via the jugular vein at 5, 15 and 30 minutes, 1, 2, 4, 6, 8, and 24 hours post dosing.
as §1, §2

[5] = biological target: T1, rhMIF (recombinant human Macrophage migration Inhibitory Factor) (Homo sapiens, UniProt P14174); assay: MIF-induced migration of human peripheral blood monocytes (PBMCs); assay type: cell-based; settings: rhMIF 90 nM, dilution series of inhibitor
T1 sequence (P14174 2-115 limits assumed): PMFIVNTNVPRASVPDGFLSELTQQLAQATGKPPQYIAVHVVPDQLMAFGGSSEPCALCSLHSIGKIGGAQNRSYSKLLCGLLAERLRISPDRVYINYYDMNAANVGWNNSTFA
Method: The chemo attractant activities of rhMIF (recombinant human Macrophage migration Inhibitory Factor) and the effect of inhibitors were measured using human peripheral blood monocytes (PBMCs) isolated from whole blood by centrifugation on Histopaque-1077 (Sigma). The cells were washed in RPMI-1640, diluted to 1×10^6 cells/ml and analyzed immediately. These assays were carried out in 24 well tissue culture plates utilizing 8.0 μm cell culture inserts (Falcon). Recombinant hMIF (90 nM), diluted in RPMI was placed in the cells of a 24 well plate with or without inhibitor (10-fold molar excess or dilution series) and allowed to incubate for 30 min at 37° C., 5% CO2. Washed human monocytes were added to the upper chamber of 8.0 μm cell culture inserts and allowed to incubate for 3 hrs at 37° C., 5% CO2. Cells that migrate through the membrane were fixed in methanol and stained with Geimsa, prior to cell counting using light microscopy.
Results are expressed as the mean number of cells counted per high power field for each of two replicates to obtain statistically significant data. (Legend: −Star=no human MIF, Skull=no human MIF+10 uM (S)-AV1013. See FIGS. 5A and 5B.

formalin paw model = assay: Inflammatory pain model (formalin paw model) in mice; assay type: in vivo; settings: mice, 300 mg/kg p.o. 60 min before the test
Method: The model employed is described in detail by Wheeler-Aceto et al (Psychopharmacology, 104, p 35-44, (1991)). Briefly, mice were given an intraplantar injection of 5% formalin (25 μl) into the posterior left paw. […] Mice were briefly observed at 1 minute intervals between 15 and 50 minutes after the injection of formalin and the number of times mice were observed licking the injected paw was recorded. 10 mice were studied in each group. The test was performed blind.
AV1013-S was evaluated at 3 doses (10, 25 and 50 mg/kg), administered p.o. 60 minutes before the test (i.e. 45 minutes before formalin), and compared with a vehicle control group. Gabapentin (300 mg/kg p.o.), administered under the same experimental conditions, was used as reference substance. The experiment therefore included 5 groups.
Data were analyzed by comparing treated groups with vehicle control using unpaired Mann-Whitney U tests.

[6] = oral 25 mg/kg racemic AV1013, plasma
[7] = oral dosing of racemate, rounded values
[8] = beagle dog, oral 10 mg/kg racemic AV1013, plasma
[9] = dog, oral dosing of racemate, rounded values

In the case of `CC(N)C(=O)c1c(C(C)C)nn2ccccc12` (racemic) [AV1013, 2-amino-1-(2-isopropylpyrazolo[1,5-a]pyridin-3-yl)propan-1-one], the “stability / racemization in solution” value ([1]; free base (or hydrochloride salt where stated), in solution) is reported as “unstable”, the “inhibition of the Rolipram binding site” value (Rolipram binding site) is reported as 43% and the “in vivo activity in a rat model of neuropathic pain” value [2] is reported as “significant in vivo activity”.

With `CC(C)c1nn2ccccc2c1C(=O)[C@@H](C)N` [(R)-AV1013] the AUC last [3, 6] was 340 ng·h/mL, the Cmax [3, 6] was 190 ng/mL and the “calculated area under the curves (AUC)” value [3, 7] was 300 ng·h/mL. For the same compound, the “mean peak plasma levels (Cmax)” value [3, 7] was 200 ng/mL, the AUC last [4, 8] was 7640 ng·h/mL and the Cmax [4, 8] was 1140 ng/mL. The “calculated area under the curves (AUC)” value [4, 9] was 7600 ng·h/mL, the “mean peak plasma levels (Cmax)” value [4, 9] was 1100 ng/mL and the “in vivo activity in a rat model of neuropathic pain” value [2] was “little or no in vivo activity”. The “attenuation of mechanical allodynia (50% paw withdrawal threshold)” value ([2]; rat CCI, oral 100 mg/kg, 2 hours post-dosing) was “essentially no activity” and the “antagonism of MIF-induced cell migration” value [5] was “antagonize MIF-induced macrophage migration in a dose-dependent fashion; also recorded: antagonize MIF-induced mononuclear cell migration in a similar dose dependent fashion”.

In the case of `NCC1(CC(=O)O)CCCCC1` [Gabapentin, reference compound], the “% Change from Control” value (formalin paw model) is reported as −83% and the “Licking Score (Mean +/− SEM)” value (formalin paw model; p < 0.01) is reported as 2.6 +/− 0.8 *.

With `CC(C)c1nn2ccccc2c1C(=O)[C@H](C)N.Cl` [(S)-AV1013.HCl, (S)-2-Amino-1-(2-isopropylpyrazolo[1,5-a]pyridin-3-yl)propan-1-one hydrochloride] the “degree of racemization on storage” value ([1]; hydrochloride salt, optimal storage and handling conditions to minimize exposure to moisture) was “approximately 2%”.
